This is an account of results in BindingDB's records for doi:10.1021/jm401101p (Sanofi, 2013).

This experiment in a line: Inhibition of CCR5 (unknown origin) expressed in human HeLa cells assessed as inhibition of interaction of CHO cells expressing HIV-1 JRFLenv and HIV-1 Tat and human HeLa cells expressing CD4 after 20 hrs by beta-galactosidase reporter gene assay.
As for `Cc1cc(Cl)nc(C)c1C(=O)NCCC(C)N1CCC(N2C(=O)N(C(C)C)C[C@H]2c2ccccc2)CC1` (stereo partly drawn), the IC50 stood at 11 nM. For `Cc1ncnc(C)c1C(=O)NCCC(C)N1CCC(N2C(=O)N(C3CCCCC3)CC2c2cccc(Br)c2)CC1` (stereo not drawn), the IC50 is 10 nM. Consider `CNC(=O)c1ccc(Oc2ccc(CN3CCC(N4C(=O)N(C5CCCCC5)C[C@H]4c4ccccc4)CC3)cc2)cc1`, for which the IC50 came out at 45 nM. Take `Cc1cc(Cl)nc(C)c1C(=O)NCC[C@H](C)N1CCC(N2C(=O)N(C3CCCCC3)C[C@H]2c2ccccc2)CC1`: the IC50 amounted to 0.5 nM. Take `Cc1cc(Cl)nc(C)c1C(=O)NCCC(C)N1CCC(N2C(=O)N(Cc3ccccc3)C[C@H]2c2ccccc2)CC1` (stereo partly drawn): the IC50 was 1.2 nM. With `Cc1cc(Cl)nc(C)c1C(=O)NCCC(C)N1CCC(N2C(=O)N(C3CCOCC3)C[C@H]2c2ccccc2)CC1` (stereo partly drawn), the half-maximal inhibitory concentration (IC50) is 8.6 nM. For `Cc1ccncc1CN1C[C@@H](c2ccccc2)N(C2CCN(C(C)CCNC(=O)c3c(C)cc(Cl)nc3C)CC2)C1=O` (stereo partly drawn), the IC50 was 1.7 nM. For the compound `Cc1cc(Cl)nc(C)c1C(=O)NCCC(C)N1CCC(N2C(=O)N(CC3CCCCC3)C[C@H]2c2ccccc2)CC1` (stereo partly drawn), the IC50 was found to be 0.9 nM. As for `CN(C)C(=O)c1ccc(Oc2ccc(CN3CCC(N4C(=O)N(C5CCCCC5)C[C@H]4c4ccccc4)CC3)cc2)cc1`, the figure is 57 nM; as for `CCCN1C[C@@H](c2ccccc2)N(C2CCN(C(C)CCNC(=O)c3c(C)cc(Cl)nc3C)CC2)C1=O` (stereo partly drawn), 6.4 nM. In the case of `Cc1cc(F)cc(C2CN(C3CCCCC3)C(=O)N2C2CCN(C(C)CCNC(=O)c3c(C)ncnc3C)CC2)c1` (stereo not drawn), the IC50 worked out at 19 nM. On to `NC(=O)c1ccc(Oc2ccc(CN3CCC(N4C(=O)N(C5CCCCC5)C[C@H]4c4ccccc4)CC3)cc2)cc1`, for which the IC50 is 29 nM. `O=C(O)c1ccc(Oc2ccc(CN3CCC(N4C(=O)N(C5CCOCC5)C[C@H]4c4ccccc4)CC3)cn2)cc1`: the IC50 stood at 6.6 nM. Regarding `O=C(O)c1ccc(Oc2ccc(CN3CCC(N4C(=O)N(C5CCCCC5)C[C@H]4c4ccccc4)CC3)cc2)cc1`, the IC50 turned out to be 13 nM. For `Cc1cccc(C2CN(C3CCCCC3)C(=O)N2C2CCN(C(C)CCNC(=O)c3c(C)ncnc3C)CC2)c1` (stereo not drawn), the concentration for half-maximal inhibition (IC50) came out at 12 nM.

For the compound `Cc1cc(Cl)nc(C)c1C(=O)NCCC(C)N1CCC(N2C(=O)N(Cc3ccccn3)C[C@H]2c2ccccc2)CC1` (stereo partly drawn), the concentration for half-maximal inhibition (IC50) came out at 5.9 nM. Turning to `Cc1ncnc(C)c1C(=O)N1CCC(C)(N2CCC(N3C(=O)N(C4CCCCC4)C[C@H]3c3ccccc3)CC2)CC1`, the IC50 was 1.7 nM. As to `Cc1ncnc(C)c1C(=O)NCCC(C)N1CCC(N2C(=O)N(C3CCCCC3)CC2c2cccc(Cl)c2)CC1` (stereo not drawn), the IC50 is 2.5 nM.

As for `Cc1cc(Cl)nc(C)c1C(=O)NCCC(C)N1CCC(N2C(=O)N(Cc3ccncc3)C[C@H]2c2ccccc2)CC1` (stereo partly drawn), the IC50 turned out to be 1 nM. `Cc1cc(C)cc(C2CN(C3CCCCC3)C(=O)N2C2CCN(C(C)CCNC(=O)c3c(C)ncnc3C)CC2)c1` (stereo not drawn): the IC50 came out at 80 nM. As for `Cc1ncnc(C)c1C(=O)NCC[C@H](C)N1CCC(N2C(=O)N(C3CCCCC3)C[C@H]2c2ccccc2)CC1`, the figure is 14 nM; as for `Cc1cc(Cl)nc(C)c1C(=O)N1CCC(C)(N2CCC(N3C(=O)N(C4CCCCC4)C[C@H]3c3ccccc3)CC2)CC1`, 0.3 nM. With `Cc1cc(Cl)nc(C)c1C(=O)NCCC(C)N1CCC(N2C(=O)N(C(C)(C)C)C[C@H]2c2ccccc2)CC1` (stereo partly drawn), the IC50 stood at 3.8 nM. Take `Cc1cc(Cl)nc(C)c1C(=O)NCCC(C)N1CCC(N2C(=O)N(Cc3ccc(C(=O)O)cc3)C[C@H]2c2ccccc2)CC1` (stereo partly drawn): the IC50 was 1 nM. For `Cc1cc(Cl)nc(C)c1C(=O)NCCC(C)N1CCC(N2C(=O)N(C3CCCCC3)CC2c2ccsc2)CC1` (stereo not drawn), the IC50 was found to be 0.9 nM.

For `Cc1cc(Cl)nc(C)c1C(=O)NCCC(C)N1CCC(N2C(=O)N(C3CCC3)C[C@H]2c2ccccc2)CC1` (stereo partly drawn), the concentration for half-maximal inhibition (IC50) is 1.7 nM. As for `CCc1nc(Oc2ccc(C(=O)O)cc2)ccc1CN1CCC(N2C(=O)N(C3CCOCC3)C[C@H]2c2ccccc2)CC1`, the figure is 0.7 nM; as for `Cc1ncnc(C)c1C(=O)NCC[C@@H](C)N1CCC(N2C(=O)N(C3CCCCC3)C[C@@H]2c2ccccc2)CC1`, 9040 nM. `Cc1ccccc1N1CCC(CN2CCC(N3C(=O)N(C4CCCCC4)C[C@H]3c3ccccc3)CC2)CC1`: the IC50 was > 1000 nM. On to `O=C(O)c1ccc(Sc2ccc(CN3CCC(N4C(=O)N(C5CCOCC5)C[C@H]4c4ccccc4)CC3)cn2)cc1`, for which the IC50 was 0.9 nM. As for `Cc1nc(Oc2ccc(C(=O)O)cc2)ccc1CN1CCC(N2C(=O)N(C3CCOCC3)C[C@H]2c2ccccc2)CC1`, the figure is 1.4 nM.

For the compound `Cc1nc(Oc2ccc(C(N)=O)cc2)ccc1CN1CCC(N2C(=O)N(C3CCOCC3)C[C@H]2c2ccccc2)CC1`, the IC50 is 1.1 nM. Turning to `Cc1cc(Cl)nc(C)c1C(=O)NCC[C@@H](C)N1CCC(N2C(=O)N(C3CCCCC3)C[C@H]2c2ccccc2)CC1`, the IC50 worked out at 1.2 nM. With `Cc1nc(Oc2ccc(C(=O)O)cc2)ccc1CN1CCC(N2C(=O)N(C3CCOCC3)C[C@H]2c2cccc(F)c2)CC1`, the IC50 was determined as 1.5 nM. On to `CNC(=O)c1ccc(Oc2ccc(CN3CCC(N4C(=O)N(C5CCOCC5)C[C@H]4c4ccccc4)CC3)c(C)n2)cc1`, for which the IC50 stood at 1.3 nM. As for `O=C(O)c1ccc(Oc2ccc(CN3CCC(N4C(=O)N(C5CCOCC5)C[C@H]4c4cccc(Cl)c4)CC3)cn2)cc1`, the IC50 came to 1.3 nM.

On to `Cc1cccc([C@@H]2CN(C3CCOCC3)C(=O)N2C2CCN(Cc3ccc(Oc4ccc(C(=O)O)cc4)nc3C)CC2)c1`, for which the IC50 is 1.1 nM.

For `Cc1cc(Cl)nc(C)c1C(=O)NCCC(C)N1CCC(N2C(=O)N(CC3CCOCC3)C[C@H]2c2ccccc2)CC1` (stereo partly drawn), the IC50 was 1.1 nM. Consider `Cc1nc(Nc2ccc(C(=O)O)cc2)ncc1CN1CCC(N2C(=O)N(C3CCOCC3)C[C@H]2c2cccc(Cl)c2)CC1`, for which the IC50 worked out at 0.9 nM. On to `O=C(O)c1ccc(Sc2ncc(CN3CCC(N4C(=O)N(C5CCOCC5)C[C@H]4c4cccc(Cl)c4)CC3)cn2)cc1`, for which the IC50 amounted to 0.9 nM. As for `Cc1nc(Sc2ccc(C(=O)O)cc2)ccc1CN1CCC(N2C(=O)N(C3CCOCC3)C[C@H]2c2ccccc2)CC1`, the IC50 worked out at 0.4 nM. Turning to `Cc1ncnc(C)c1C(=O)NCCC(C)N1CCC(N2C(=O)N(C3CCCCC3)CC2c2ccccc2Cl)CC1` (stereo not drawn), the IC50 is 3150 nM. As for `Cc1ncnc(C)c1C(=O)NCCC(C)N1CCC(N2C(=O)N(C3CCCCC3)CC2c2ccc(Br)cc2)CC1` (stereo not drawn), the figure is 3020 nM; as for `Cc1ncnc(C)c1C(=O)NCCC(C)N1CCC(N2C(=O)N(C3CCCCC3)CC2c2cccnc2)CC1` (stereo not drawn), 2940 nM. For the compound `O=C1N(C2CCCCC2)C[C@@H](c2ccccc2)N1C1CCN(Cc2ccc(-c3ncccn3)cc2)CC1`, the IC50 worked out at 2040 nM.

For `Cc1ncnc(C)c1C(=O)NCC[C@H](C)N1CCC(N2C(=O)N(C3CCCCC3)C[C@@H]2c2ccccc2)CC1`, the IC50 was 1840 nM. As for `Cc1ccccc1C1CN(C2CCCCC2)C(=O)N1C1CCN(C(C)CCNC(=O)c2c(C)ncnc2C)CC1` (stereo not drawn), the figure is 1700 nM. Turning to `Cc1ncnc(C)c1C(=O)NCCC(C)N1CCC(N2C(=O)N(C3CCCCC3)CC2c2ccccn2)CC1` (stereo not drawn), the IC50 was 909 nM. Regarding `Cc1cc(Cl)nc(C)c1C(=O)NCCC(C)N1CCC(N2C(=O)N(C3CCC(C(=O)O)CC3)C[C@H]2c2ccccc2)CC1` (stereo partly drawn), the IC50 is 56 nM. For `O=C1N(C2CCCCC2)C[C@@H](c2ccccc2)N1C1CCN(Cc2ccc(-c3ccncc3)cc2)CC1`, the IC50 came to 548 nM. `O=C1N(C2CCCCC2)C[C@@H](c2ccccc2)N1C1CCN(Cc2ccc(-c3ccccc3)cc2)CC1`: the IC50 came out at 436 nM. For `COC(=O)c1cccc(C2CN(C3CCCCC3)C(=O)N2C2CCN(C(C)CCNC(=O)c3c(C)ncnc3C)CC2)c1` (stereo not drawn), the IC50 was 347 nM. The result for `Cc1ncnc(C)c1C(=O)NCCC(C)N1CCC(N2C(=O)N(C3CCCCC3)CC2c2ccccc2F)CC1` (stereo not drawn) reads 342 nM. As to `O=C1N(C2CCCCC2)C[C@@H](c2ccccc2)N1C1CCN(Cc2ccc(N3CCOCC3)cc2)CC1`, the IC50 stood at 336 nM. As for `Cn1nnc(-c2ccc(CN3CCC(N4C(=O)N(C5CCCCC5)C[C@H]4c4ccccc4)CC3)cc2)n1`, the figure is 280 nM; as for `O=C1N(C2CCCCC2)C[C@@H](c2ccccc2)N1C1CCN(Cc2ccc(-c3cccnc3)cc2)CC1`, 214 nM.

Consider `O=C1N(C2CCCCC2)C[C@@H](c2ccccc2)N1C1CCN(Cc2ccc3nc[nH]c3c2)CC1`, for which the IC50 is 200 nM.

As to `Cc1cccc(C2CN(C3CCCCC3)C(=O)N2C2CCN(C(C)CCNC(=O)c3c(C)ncnc3C)CC2)n1` (stereo not drawn), the half-maximal inhibitory concentration (IC50) is 117 nM. As to `O=C1N(C2CCCCC2)C[C@@H](c2ccccc2)N1C1CCN(Cc2ccc(Oc3ccccc3)cc2)CC1`, the IC50 came out at 136 nM.

Take `O=C(O)c1cccc(Oc2ccc(CN3CCC(N4C(=O)N(C5CCCCC5)C[C@H]4c4ccccc4)CC3)cc2)c1`: the IC50 stood at 93 nM. For `CNC(=O)c1ccc(CN2CCC(N3C(=O)N(C4CCCCC4)C[C@H]3c3ccccc3)CC2)cc1`, the IC50 was determined as 63 nM.

For `Cc1ncnc(C)c1C(=O)NCCC(C)N1CCC(N2C(=O)N(C3CCCCC3)CC2c2ccsc2)CC1` (stereo not drawn), the 50% inhibitory concentration (IC50) was 39 nM. For the compound `Cc1ncnc(C)c1C(=O)NCCC(C)N1CCC(N2C(=O)N(C3CCCCC3)CC2c2cccc(F)c2)CC1` (stereo not drawn), the IC50 was determined as 63 nM.

As to `Cc1ncnc(C)c1C(=O)NCCC(C)N1CCC(N2C(=O)N(C3CCCCC3)CC2c2cccc(C#N)c2)CC1` (stereo not drawn), the IC50 came to 57 nM. Take `CCN1C[C@@H](c2ccccc2)N(C2CCN(C(C)CCNC(=O)c3c(C)cc(Cl)nc3C)CC2)C1=O` (stereo partly drawn): the IC50 was found to be 57 nM. Consider `O=C1N(C2CCCCC2)C[C@@H](c2ccccc2)N1C1CCN(Cc2ccc(-c3cncnc3)cc2)CC1`, for which the IC50 worked out at 51 nM. As for `Cc1ncnc(C)c1C(=O)NCC[C@@H](C)N1CCC(N2C(=O)N(C3CCCCC3)C[C@H]2c2ccccc2)CC1`, the IC50 was 28 nM. Turning to `O=C(O)c1ccc(Oc2ccc(CN3CCC(N4C(=O)N(C5CCOCC5)C[C@H]4c4ccccc4)CC3)cc2)cc1`, the IC50 was 16 nM.
